Reference: the supplement of paper PMC8671470

Assays:
Settings in all cases: 72 h
HL-60 [1] = assay: area under dose-response curve (viability, 1 nM-10 uM) (fraction (0-1)); higher = more sensitive
Method in brief: (§1)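 Area under the curve, where listed, was derived from four-parameter log-logistic fits with drc and PharmacoGx. These fits used CellTiter-Glo viability from HL-60 cells in RPMI 1640 with 10% FBS, normalised to DMSO wells and wells holding 10 μM proteasome inhibitor. The full library was rescreened on 384-well plates in duplicate at five tenfold concentrations, 1–10,000 nM, with DMSO or 100 nM of one of three metabolic inhibitors, for 72 h at 37 °C, 5% CO2.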

HL-60 [2] = assay: cell viability (% survival relative to DMSO control); higher = less cytotoxic
Method in brief: as §1

[3] = system: myeloid leukemia patient primary cells Pat.3; assay: cell viability (% survival relative to DMSO control); higher = less cytotoxic
Method in brief: (§2)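 Thawed, Ficoll-purified mononuclear cells from AML or CML patients in RPMI 1640 with 10% FBS were seeded at 10,000 cells/well on 384-well plates pre-printed with 70 compounds at five tenfold concentrations, 1–10,000 nM, in duplicate, for 72 h. Viability was read by CellTiter-Glo and normalised to DMSO and 10 μM proteasome-inhibitor wells. Where given, area under the curve came from four-parameter log-logistic fits (drc, PharmacoGx R packages).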

[4] = system: myeloid leukemia patient primary cells Pat.14; assay: as above
Method in brief: as §2

[5] = system: myeloid leukemia patient primary cells Pat.4; assay: as above
Method in brief: as §2

[6] = system: myeloid leukemia patient primary cells Pat.8; assay: as above
Method in brief: as §2

[7] = system: myeloid leukemia patient primary cells Pat.13; assay: as above
Method in brief: as §2

[8] = system: myeloid leukemia patient primary cells Pat.6; assay: as above
Method in brief: as §2

[9] = system: myeloid leukemia patient primary cells Pat.12; assay: as above
Method in brief: as §2

[10] = system: myeloid leukemia patient primary cells Pat.11; assay: as above
Method in brief: as §2

[11] = system: myeloid leukemia patient primary cells Pat.5; assay: as above
Method in brief: as §2

[12] = system: myeloid leukemia patient primary cells Pat.1; assay: as above
Method in brief: as §2

[13] = system: myeloid leukemia patient primary cells Pat.2; assay: as above
Method in brief: as §2

[14] = system: myeloid leukemia patient primary cells Pat.15; assay: as above
Method in brief: as §2

[15] = system: myeloid leukemia patient primary cells Pat.7; assay: as above
Method in brief: as §2

[16] = system: myeloid leukemia patient primary cells Pat.10; assay: as above
Method in brief: as §2

[17] = system: myeloid leukemia patient primary cells Pat.9; assay: as above
Method in brief: as §2

CO[C@H]1C[C@@H]2CC[C@@H](C)[C@@](O)(O2)C(=O)C(=O)N2CCCC[C@H]2C(=O)O[C@H]([C@H](C)C[C@@H]2CC[C@@H](OCCO)[C@H](OC)C2)CC(=O)[C@H](C)/C=C(\C)[C@@H](O)[C@@H](OC)C(=O)[C@H](C)C[C@H](C)/C=C/C=C/C=C/1C [Everolimus]
Settings | area under dose-response curve, co-treatment: AZD3965 100 nM | area under dose-response curve, co-treatment: DMSO vehicle | area under dose-response curve, co-treatment: GSK2194069 100 nM | area under dose-response curve, co-treatment: pictilisib 100 nM | cell viability, 1 nM [%] | cell viability, 10 nM [%] | cell viability, 100 nM [%] | cell viability, 1000 nM [%] | cell viability, 10000 nM [%]
HL-60 [1] | < 0.0301 | < 0.0301 | < 0.0301 | < 0.0301 | – | – | – | – | –
[3] | – | – | – | – | 78.6 | 5.05 | 94.1 | 42.3 | 7.24
[4] | – | – | – | – | 90.7 | 53.5 | 96.7 | 59.3 | 17.4
[5] | – | – | – | – | 64.8 | 57.9 | 47 | 47.3 | 41.9
[6] | – | – | – | – | 67.6 | 68.8 | 56.4 | 80.7 | 66.5
[7] | – | – | – | – | 82.2 | 82.6 | 74.8 | 79.3 | 43.1
[8] | – | – | – | – | 96.2 | 92.4 | 99.1 | 87.4 | 53.5
[9] | – | – | – | – | 96.2 | > 100 | > 100 | 93.7 | 99
[10] | – | – | – | – | 90.6 | 83.8 | 89.2 | 87.3 | 70.2
[11] | – | – | – | – | 49.5 | 20.5 | 23 | 9.25 | 0.912
[12] | – | – | – | – | 88.6 | 56.4 | 74 | 60.2 | 41.2
[13] | – | – | – | – | 82.6 | 83.8 | 74.4 | 82.3 | 68.2
[14] | – | – | – | – | 62.3 | 44.6 | 36.8 | 40 | 22.9
[15] | – | – | – | – | 85 | 68.8 | 99.3 | 79.1 | 2.34
[16] | – | – | – | – | 34.9 | 31.3 | 34.9 | 41.7 | 11.8
[17] | – | – | – | – | 64.2 | 22.3 | 87.7 | 15.7 | 0.492

cell viability [%], HL-60 [2]
Settings | 0.001 µM | 0.01 µM | 0.1 µM | 1 µM | 10 µM
co-treatment: AZD3965 100 nM | 100 | 95.63 | 97.03 | 93.2 | 83.2
co-treatment: DMSO vehicle | 84.2 | 90.5 | 93.85 | 98.3 | 93.8
co-treatment: GSK2194069 100 nM | 85.1 | 88.9 | 97.9 | 110.7 | 88.4
co-treatment: pictilisib 100 nM | 78.7 | 88.7 | 87.9 | 89.2 | 72.1

Cc1cc2c(C(C)C)c(O)c(O)c(C=O)c2c(O)c1-c1c(C)cc2c(C(C)C)c(O)c(O)c(C=O)c2c1O [Gossypol]
Settings | area under dose-response curve, co-treatment: AZD3965 100 nM | area under dose-response curve, co-treatment: DMSO vehicle | area under dose-response curve, co-treatment: GSK2194069 100 nM | area under dose-response curve, co-treatment: pictilisib 100 nM | cell viability, 1 nM [%] | cell viability, 10 nM [%] | cell viability, 100 nM [%] | cell viability, 1000 nM [%] | cell viability, 10000 nM [%]
HL-60 [1] | 0.123 | 0.124 | 0.154 | 0.145 | – | – | – | – | –
[3] | – | – | – | – | 96.5 | 28 | 70.6 | < 0 | 3.08
[4] | – | – | – | – | > 100 | 42.9 | 69.1 | 0.583 | 63.3
[5] | – | – | – | – | 84.4 | 90.7 | 77.1 | 81.5 | 8.19
[6] | – | – | – | – | 82.2 | 89.7 | 89.9 | 84.7 | 6.5
[7] | – | – | – | – | 87.8 | 69.7 | 83.6 | 75.4 | 15
[8] | – | – | – | – | 99.8 | 80.8 | 84.4 | 83.7 | 20.9
[9] | – | – | – | – | 98.6 | 94 | 88.1 | 99.1 | 50.5
[10] | – | – | – | – | 98.5 | 98.9 | 91.9 | 84.6 | 11.6
[11] | – | – | – | – | 98.7 | 6.75 | 22.8 | 5.84 | 93.9
[12] | – | – | – | – | 82.1 | 92.5 | 92.2 | 78.8 | 14.3
[13] | – | – | – | – | 96.6 | 92.2 | 93 | 80 | 34.6
[14] | – | – | – | – | 98.2 | 85.9 | 89.7 | 95.7 | 27.3
[15] | – | – | – | – | 72.1 | 28.8 | 60.8 | < 0 | < 0
[16] | – | – | – | – | 89.2 | 41.6 | 43.3 | 2.16 | 89.9
[17] | – | – | – | – | 63.1 | 7.88 | 22 | 6.35 | 28.7

cell viability [%], HL-60 [2]
Settings | 0.001 µM | 0.01 µM | 0.1 µM | 1 µM | 10 µM
co-treatment: AZD3965 100 nM | 101 | 106 | 96.1 | 102 | 2.22
co-treatment: DMSO vehicle | 101 | 104 | 96.3 | 102 | 2.19
co-treatment: GSK2194069 100 nM | 107 | 104 | 90 | 87.6 | 2.81
co-treatment: pictilisib 100 nM | 104 | 100 | 93.97 | 91.4 | 1.94
